The values that follow come from DBAASP.

Structures are written as SMILES. Values after ≈ are worked out from the molar mass of the structure shown. Values joined by “and” are separate entries in the source; they are usually repeats but may differ in a detail not shown here. Equal values may be shown once. Some results are limits rather than exact numbers.

What all share (assay): ≥ marks a high value that may be exact or a test limit, other limits are often not marked, values filed in µg/mL are converted to µM
Experiment [1] concerns Salmonella enterica subsp. enterica serovar Infantis.
Experiment [2] concerns Escherichia coli JW0013.
Experiment [3] relates to Escherichia coli JW0368 ΔsbmA.
The subject of experiment [4] is Salmonella enterica serovar Tennessee.
Experiment [5] deals with Escherichia coli.
For experiment [6], the system named is Escherichia coli J2210.
Experiment [7] has as its system Salmonella enterica subsp. enterica serovar Newport.
In experiment [8] the test system is Salmonella enterica subsp. enterica serovar Enteritidis MH91989.
For experiment [9], the system named is Escherichia coli JJ2489.
Experiment [10] has as its system Escherichia coli JW2778 ΔygdD.
The subject of experiment [11] is Salmonella typhimurium SL1344.
Experiment [12] concerns Escherichia coli MC1041.
Experiment [13] relates to Escherichia coli NBRC 14237.
Experiment [14] has as its system Escherichia coli DH5alpha.
Experiment [15] concerns Micrococcus luteus NBRC 12708.
Experiment [16] relates to Staphylococcus aureus NBRC 12732.
The subject of experiment [17] is Pseudomonas aeruginosa NBRC 12582.
The test system of experiment [18] is Staphylococcus aureus JCM 2151.
In experiment [19] the test system is Escherichia coli HB101.
Experiment [20] concerns Escherichia coli ATCC 25922.
The subject of experiment [21] is Escherichia coli IS117#.
The test system of experiment [22] is Escherichia coli IS218#.
For experiment [23], the system named is Staphylococcus aureus ATCC 25923.
Experiment [24] relates to Staphylococcus aureus IS37#.
Experiment [25] concerns Enterobacter cloacae ATCC 13047.
Experiment [26] concerns Pseudomonas aeruginosa ATCC 27853.
Experiment [27] concerns Staphylococcus aureus NCTC 10788.
Experiment [28] has as its system Escherichia coli IS37#.
Experiment [29] relates to Candida albicans ATCC 2002.
For experiment [30], the system named is Candida albicans ATCC 90028.
Experiment [31] relates to Klebsiella pneumoniae IS59#.
The test system of experiment [32] is Staphylococcus aureus IS10#.
In experiment [33] the test system is Pseudomonas aeruginosa IS350#.
Experiment [34] concerns Shigella dysenteriae.
Experiment [35] concerns Klebsiella pneumoniae ATCC 700603.
Experiment [36] has as its system Pseudomonas aeruginosa CMCCB 1010.
For experiment [37], the system named is Candida albicans NCYC 1467.
Experiment [38] relates to Escherichia coli NCTC 10418.
Experiment [39] concerns Candida parapsilosis ATCC 22019.
Experiment [40] has as its system Enterococcus faecalis ATCC 29212.
Experiment [41] has as its system Staphylococcus aureus NCTC 12981.
Experiment [42] deals with Pseudomonas aeruginosa KCTC 1637.
Experiment [43] concerns Staphylococcus aureus KCTC 1621.
The subject of experiment [44] is Staphylococcus epidermidis KCTC 1917.
The subject of experiment [45] is Escherichia coli KCTC 1682.
For experiment [46], the system named is Staphylococcus aureus USA 100.

As usually defined, the MIC is the lowest concentration that inhibits growth of the organism. Read a high MIC as a need for much substance. Consider `CC[C@H](C)[C@H](NC(=O)[C@@H]1CCCN1C(=O)[C@H](CCCN=C(N)N)NC(=O)[C@@H]1CCCN1C(=O)[C@@H]1CCCN1C(=O)[C@@H](NC(=O)[C@@H]1CCCN1C(=O)[C@H](CCCN=C(N)N)NC(=O)[C@@H]1CCCN1C(=O)[C@H](CC(C)C)NC(=O)[C@H](Cc1ccc(O)cc1)NC(=O)[C@H](CO)NC(=O)CNC(=O)[C@H](CCCCN)NC(=O)[C@H](CC(=O)O)NC(=O)[C@@H](N)C(C)C)[C@@H](C)O)C(=O)N[C@@H](Cc1ccc(O)cc1)C(=O)N[C@@H](CC(N)=O)C(=O)N[C@@H](CCCN=C(N)N)C(=O)N[C@@H](CC(N)=O)C(=O)O` [VDKGSYLPRPTPPRPIYNRN], for which the minimal inhibitory concentration (MIC) in experiment [1] is 0.6 µM (≈ 1.4 µg/mL); in [2], 0.15 µM (≈ 0.351 µg/mL); in experiment [3], 2.4 µM (≈ 5.62 µg/mL); in [4], 0.6 µM (≈ 1.4 µg/mL); in [5], > 0.416 µM and 0.6 µM; in [6], 0.786 µM (≈ 1.84 µg/mL). For the same molecule, the MIC in experiment [7] turned out to be 0.416 µM (≈ 0.974 µg/mL); in experiment [8], 1.2 µM (≈ 2.81 µg/mL); in experiment [9], 0.6 µM (≈ 1.4 µg/mL); in [10], 0.6 µM (≈ 1.4 µg/mL); in experiment [11], 1.2 µM (≈ 2.81 µg/mL); in experiment [12], 0.416 µM (≈ 0.974 µg/mL).
Turning to `CC[C@H](C)[C@H](NC(=O)[C@@H](N)Cc1ccccc1)C(=O)NCC(=O)N[C@@H](C)C(=O)N[C@@H](CC(C)C)C(=O)N[C@@H](CC(C)C)C(=O)N[C@@H](CCCN=C(N)N)C(=O)N1CCC[C@H]1C(=O)N[C@@H](C)C(=O)N[C@@H](CC(C)C)C(=O)N[C@@H](CCCCN)C(=O)N[C@@H](CC(C)C)C(=O)N[C@@H](CC(C)C)C(=O)N[C@@H](C)C(N)=O` [FIGALLRPALKLLA], the minimum inhibitory concentration (MIC) is 12.5 µM (≈ 18.7 µg/mL) in [13]; not below 33.4 µM in experiment [14]; 25 µM (≈ 37.4 µg/mL) in experiment [15]; 12.5 µM (≈ 18.7 µg/mL) in experiment [16]; not below 50 µM in [17]; 6.48 µM (≈ 9.69 µg/mL) in experiment [18].
Take `CC[C@H](C)[C@H](NC(=O)[C@H](CCCN=C(N)N)NC(=O)[C@@H](N)CCCN=C(N)N)C(=O)N[C@@H](CCCN=C(N)N)C(=O)N1CCC[C@H]1C(=O)N[C@@H](CCCN=C(N)N)C(=O)N1CCC[C@H]1C(=O)N1CCC[C@H]1C(=O)N[C@@H](CCCN=C(N)N)C(=O)N[C@@H](CC(C)C)C(=O)N1CCC[C@H]1C(=O)N[C@@H](CCCN=C(N)N)C(=O)N1CCC[C@H]1C(=O)N[C@@H](CCCN=C(N)N)C(=O)N1CCC[C@H]1C(=O)N[C@@H](CS)C(=O)O` [RRIRPRPPRLPRPRPC]: the MIC in experiment [19] and in experiment [20] was 11.3 µM (≈ 22.9 µg/mL) in each case.
Take `CC[C@H](C)[C@H](NC(=O)CNC(=O)[C@H](CO)NC(=O)[C@H](CC(C)C)NC(=O)[C@H](CC(C)C)NC(=O)CN)C(=O)N[C@@H](CC(C)C)C(=O)NCC(=O)N[C@@H](C)C(=O)NCC(=O)N[C@@H](CCCCN)C(=O)N[C@@H](CCCCN)C(=O)N[C@H](C(=O)N[C@H](C(=O)N[C@H]1CSSC[C@@H](C(=O)O)NC(=O)[C@H](CC(C)C)NC(=O)CNC(=O)[C@H](CO)NC(=O)[C@H](CC(C)C)NC(=O)CNC1=O)C(C)C)[C@@H](C)CC` [GLLSGILGAGKKIVCGLSGLC]: the MIC in [21] is 5.1 µM (≈ 9.99 µg/mL); in experiment [22], 2.55 µM (≈ 4.99 µg/mL); in experiment [23], 2.55 µM (≈ 4.99 µg/mL); in experiment [24], 10.2 µM (≈ 20 µg/mL); in [25] it was 5.1 µM (≈ 9.99 µg/mL); in [26], 2.55 µM (≈ 4.99 µg/mL). In addition, the MIC came to 32 µM (≈ 62.6 µg/mL) in [27]; 2.55 µM (≈ 4.99 µg/mL) in [28]; 0.51 µM (≈ 0.999 µg/mL) in [29]; 2.55 µM (≈ 4.99 µg/mL) in [30]; 5.1 µM (≈ 9.99 µg/mL) in experiment [31]; 5.1 µM (≈ 9.99 µg/mL) in experiment [20]. Further, the MIC in experiment [32] came to 10.2 µM (≈ 20 µg/mL); in experiment [33] it was 5.1 µM (≈ 9.99 µg/mL); in experiment [34], 2.55 µM (≈ 4.99 µg/mL); in experiment [35], 1.28 µM (≈ 2.5 µg/mL); in experiment [36], 1.28 µM (≈ 2.5 µg/mL); in [37], 32 µM (≈ 62.6 µg/mL). Moreover, the values for the MIC in [38], in experiment [39] and in [40] were not below 64 µM, 1.28 µM (≈ 2.5 µg/mL) and 5.1 µM (≈ 9.99 µg/mL), respectively.
In the case of `NC(=O)[C@H](CCCN=C(N)N)NC(=O)[C@H](Cc1c[nH]c2ccccc12)NC(=O)[C@H](CCCN=C(N)N)NC(=O)[C@@H](N)Cc1c[nH]c2ccccc12` [WRWR], the MIC in [41] was not below 182 µM; in experiment [42], not below 45.5 µM; in [43], not below 45.5 µM; in experiment [44], 11.4 µM (≈ 7.99 µg/mL); in [45], not below 45.5 µM; in experiment [38], not below 182 µM. Also, the minimal inhibitory concentration (MIC) in experiment [46] is not below 50 µM.
